Experimental data from the NIST ThermoML archive (doi:10.1016/j.jct.2008.01.020).
± gives the expanded uncertainty stated by the source.

Test: mn = molality of the nth substance listed, in mol/kg
Details: 101 kPa, Liquid; for apparent molar heat capacity: Flow calorimetry

## Nc1ncnc2c1ncn2[C@@H]1O[C@H](CO)[C@@H](O)[C@H]1O [β-adenosine] + O
288.15 K, m1 = 0.01329
  mass density: 1000.4 ± 0.14 kg/m3
288.15 K, m1 = 0.01395
  mass density: 1000.47 ± 0.14 kg/m3
288.15 K, m1 = 0.01492
  mass density: 1000.56 ± 0.14 kg/m3
288.15 K, m1 = 0.01614
  mass density: 1000.68 ± 0.14 kg/m3
288.15 K, m1 = 0.01712
  mass density: 1000.77 ± 0.14 kg/m3
288.15 K, m1 = 0.01799
  mass density: 1000.86 ± 0.14 kg/m3
288.15 K, m1 = 0.01882
  mass density: 1000.94 ± 0.14 kg/m3
288.15 K, m1 = 0.01892
  mass density: 1000.95 ± 0.14 kg/m3
288.15 K, m1 = 0.01942
  mass density: 1001 ± 0.14 kg/m3
298.15 K, m1 = 0.01599
  apparent molar heat capacity: 483.2 ± 49 J/K/mol
  mass density: 998.58 ± 0.14 kg/m3
298.15 K, m1 = 0.01704
  apparent molar heat capacity: 488 ± 46 J/K/mol
  mass density: 998.686 ± 0.14 kg/m3
298.15 K, m1 = 0.01799
  apparent molar heat capacity: 487.4 ± 44 J/K/mol
  mass density: 998.767 ± 0.14 kg/m3
298.15 K, m1 = 0.01899
  apparent molar heat capacity: 491.7 ± 42 J/K/mol
  mass density: 998.864 ± 0.14 kg/m3
298.15 K, m1 = 0.01941
  apparent molar heat capacity: 486.7 ± 41 J/K/mol
  mass density: 998.902 ± 0.14 kg/m3
298.15 K, m1 = 0.01999
  apparent molar heat capacity: 489.8 ± 40 J/K/mol
  mass density: 998.965 ± 0.14 kg/m3
298.15 K, m1 = 0.02098
  apparent molar heat capacity: 488.4 ± 38 J/K/mol
  mass density: 999.055 ± 0.14 kg/m3
298.15 K, m1 = 0.02171
  apparent molar heat capacity: 489.9 ± 36 J/K/mol
  mass density: 999.129 ± 0.14 kg/m3
298.15 K, m1 = 0.02196
  apparent molar heat capacity: 487.5 ± 36 J/K/mol
  mass density: 999.151 ± 0.14 kg/m3
298.15 K, m1 = 0.01501
  mass density: 998.486 ± 0.14 kg/m3
303.15 K, m1 = 0.01329
  mass density: 996.913 ± 0.14 kg/m3
303.15 K, m1 = 0.01395
  mass density: 996.975 ± 0.14 kg/m3
303.15 K, m1 = 0.01501
  mass density: 997.076 ± 0.14 kg/m3
303.15 K, m1 = 0.01546
  mass density: 997.117 ± 0.14 kg/m3
303.15 K, m1 = 0.01614
  mass density: 997.185 ± 0.14 kg/m3
303.15 K, m1 = 0.01712
  mass density: 997.271 ± 0.14 kg/m3
303.15 K, m1 = 0.01799
  mass density: 997.354 ± 0.14 kg/m3
303.15 K, m1 = 0.01892
  mass density: 997.445 ± 0.14 kg/m3
303.15 K, m1 = 0.01903
  mass density: 997.455 ± 0.14 kg/m3
303.15 K, m1 = 0.01942
  mass density: 997.495 ± 0.14 kg/m3
313.15 K, m1 = 0.01297
  mass density: 993.43 ± 0.15 kg/m3
313.15 K, m1 = 0.01346
  mass density: 993.47 ± 0.15 kg/m3
313.15 K, m1 = 0.01395
  mass density: 993.522 ± 0.15 kg/m3
313.15 K, m1 = 0.01501
  mass density: 993.616 ± 0.15 kg/m3
313.15 K, m1 = 0.01598
  mass density: 993.707 ± 0.15 kg/m3
313.15 K, m1 = 0.017
  mass density: 993.802 ± 0.15 kg/m3
313.15 K, m1 = 0.01799
  mass density: 993.896 ± 0.15 kg/m3
313.15 K, m1 = 0.01882
  mass density: 993.976 ± 0.15 kg/m3
313.15 K, m1 = 0.01997
  mass density: 994.077 ± 0.15 kg/m3
